In article PMC7143967, “Extensive Therapeutic Drug Monitoring of Colistin in Critically Ill Patients Reveals Undetected Risks” (Microorganisms, 2020):
Bridge positions count the residues as written; N and C are the ends. Square brackets hold non-standard residues; d marks the D form. Peptide text beside a SMILES is read from it. * marks the point of attachment. X1 = CC[C@H](C)CCCCC(=O)*; Dab = NCC[C@H](N)C(=O)O

Assays:
[1] = Therapeutic drug monitoring of CMS and Colistin plasma levels by HPLC-MS/MS
Method: Eight critically ill patients, some of them under renal replacement therapy (continuous venovenous hemodialysis (CVVHD), intermittent HD (IHD)), infected with gram negative MDR pathogens were treated with CMS. Daily measurements of serum creatinine levels and estimation of glomerular filtration rate using the CKD-EPI Creatinine (eGFR CKD-EPI) equation [16] were used to monitor renal function. Samples were collected multiple times daily prior to/after every dose of CMS for trough/peak level determination of CMS and Colistin. After termination of the Colistin treatment course, samples were derived from the individual patient, to ensure complete and timely removal of Colistin. Blood samples were immediately centrifuged and refrigerated. The plasma was frozen and kept at −20 °C until analysis. After analysis samples were kept at −80 °C for long term storage.
We aimed for target Colistin serum levels of >2 mg/L in patients suffering from A. baumannii infection alone, or >4 mg/L in patients with singular Pseudomonas infections or combined infections. Dosing was done with or without a loading dose of 6–9 million international units (IU) Colistin and subsequent doses of either 3 × 2 million IU/day, 3 × 3 million IU/day, 3 × 4 million IU or 2 × 4.5 million IU, as indicated.
A total of 50 μL of plasma samples, calibrators and controls were precipitated with 200 μL of ice cold isopropanol containing 0.5 μg/mL polymyxin B as internal standard and 0.02% TFA. After 10 min at −20 °C, centrifuging 5 min with 20,000 g at 4 °C, 100 μL of the supernatant was diluted with 400 μL of the appropriate solvent (water or 30% DMSO in water respectively) and put into the auto sampler at 4 °C. LC-MS/MS system: Dionex UltiMate 3000 XRS autosampler, XRS quaternary UHPLC pump, RS Column compartment. Column used: Aeris Peptide 1.7 μm XB-C18 2.1 × 100 mm (Phenomenex), 40 °C. Mobile phases: Gradient starting with 19% lcms-grade acetonitrile (Baker) and 0.05% TFA (Sigma) in water (Milli-Q) to 40% within 1.6 min at a flow rate of 500 μL/min. Mass spectrometer: TSQ-Vantage triple quad mass spectrometer (Thermo Fisher Scientific, San Jose, CA, USA), HESI-source, positive electrospray ionization mode, settings: ionization voltage 3500 V, vaporizer temperature 500 °C, sheath gas flow 40 (arb), auxiliary gas flow 15 (arb), capillary temperature 200 °C and declustering voltage 10 V. For multiple reaction monitoring (MRM), argon was used as collision gas at a pressure of 1.1 × 10^−3 Torr. Doubly charged parent ions of Colistins (578.5/100.9, 585.4/100.9) and polymyxin B (602.4/100.9) were used for fragmentation and the product ions and collision energies have been optimized for best intensities. A detailed procedure protocol including description of standardization, sample preparation, sample stability etc., is available upon request.

[2] = clinical; format: in vivo, human (critically ill ICU patients); settings: for t1/2 of Colistin: first-order fit
Method: (§1) Blood samples were immediately centrifuged and refrigerated.
While CMS is excreted primarily via the kidneys, Colistin elimination pathways remain unclear. […] We were able to calculate elimination half-life for Colistin in 6 out of 8 patients. In our cohort, elimination half-time was greatly extended to a mean of 22.0 h (Figure 2A). The individual half-life kinetics, including details on curve fitting, are provided in the Supplementary Materials (Supplementary Materials “Elimination half times of Colistin” Figures S1–S6). Individual elimination kinetics followed a first-order kinetic. In one patient (Patient 2), we established CRRT in the midst of the elimination time course. This allowed us to forward project kinetics without CRRT and backwards interpolate kinetics with CRRT. […] The amount of available CMS relevantly impacts upon Colistin levels, since CMS acts as a pro-drug. Thus, elimination of CMS is key to reduce Colistin plasma levels whereas CMS accumulation is the source for Colistin build up. CMS elimination can be rapidly affected by changes of renal function and distribution volume. CMS trough levels might indicate potential accumulation of CMS and subsequent accumulation of Colistin. This is of potential relevance when renal CMS elimination might be impaired.
Extensive Therapeutic Drug Monitoring Of
Supplemental material 1 – elimination half times of Colistin
Figure S1: plasma levels of Colistin after cessation of CMS administration. (A) linear
scaling of colistin plasma levels in [mg/L]; fit of an 1st decay elimination curve, y =
1,5111e-0,029x, R2= 0.97, p<0.001; (B) linear scaling colistin plasma levels in [mg/L] after
(also on this page, place not known: 1 st Colistin [mg/L] ln (Colistin [mg/L]) time [h] time [h] (A) (B))
(1 picture or pasted object on this page, not shown here)

[3] = tested on: carbapenem resistant A. baumannii (CRAB); assay: Clinical/microbiological outcome of CMS/Colistin treatment; format: in vivo, human (critically ill ICU patients)
Method: Microbiology testing was performed by the university’s Department of Microbiology. Samples included regular swab testing for screening purposes (nasal, inguinal, anal, tracheal) and specific testing of blood cultures, wound samples for detection of tissue infection, bronchoalveolar lavage (BAL) fluid and urine.

[4] = cited from earlier work; for elimination by prolonged intermittent RRT: ref Schmidt et al. [24]
Description: Colistin was isolated from Bacillus polymyxa subsp. colistinus and consists of a cyclic heptapeptide and a tripeptide side chain acetylated at the N-terminus by a fatty acid moiety. Earlier commercially available Colistin consisted of a mixture of several chemically related subcomponents, including the two major components Colistin A and Colistin B, with a known, concentration-dependent (nephro-, neuro-, oto-) toxicity. […] Following par ... || While CMS is excreted primarily via the kidneys, Colistin elimination pathways remain unclear. […] We were able to calculate elimination half-life for Colistin in 6 out of 8 patients. In our cohort, elimination half-time was greatly extended to a mean of 22.0 h (Figure 2A). […] Subsequently CRRT became necessary due to sustained renal failu ...

[5] = set-up: species or system human (critically ill ICU patients); settings: in vivo
Description: as §1

**Q.** For `CC[C@H](C)CCCCC(=O)N[C@@H](CCN)C(=O)N[C@H](C(=O)N[C@@H](CCN)C(=O)N[C@H]1CCNC(=O)[C@H]([C@@H](C)O)NC(=O)[C@H](CCN)NC(=O)[C@H](CCN)NC(=O)[C@H](CC(C)C)NC(=O)[C@@H](CC(C)C)NC(=O)[C@H](CCN)NC1=O)[C@@H](C)O` [Colistin] (X1-[Dab]T[Dab][Dab][Dab][dL]L[Dab][Dab]T; lactam 4-C), which “time to Colistin levels >2 mg/L after dose increase” value ([1]; Patient 2, dose increased from 3 × 2 to 3 × 4 million IU) is on record?
**A.** 48 h

**Q.** And the “time to sufficient Colistin levels” value ([1]; Patient 4, loading dose 9 million IU, then 3 × 3 million IU CMS daily, target 4 mg/L)?
**A.** eight

**Q.** And the “time to target Css,avg of ~4 mg/L after dose increase” value ([1]; Patient 4, under CVVHDF, 3 × 4 million IU per day)?
**A.** four

**Q.** What about the “time to Colistin plasma levels between 3–4 mg/L” value ([1]; Patient 6, second treatment cycle, loading dose 9 million IU, then 3 million IU CMS three times a day) of the same compound?
**A.** 8 to 16 h

**Q.** And the “time to target Colistin plasma levels” value ([1]; Patient 7, second treatment cycle, loading dose 9 million IU, 4.5 million IU twice daily, CVVHDF)?
**A.** three

**Q.** And the accumulation in plasma ([1]; Patient 8, IHD-adjusted dosing with loading dose of 9 million IU, CMS stopped after 3 days)?
**A.** rapid accumulation

**Q.** What about the level at 48 h ([1]; human, in vivo) of the same compound?
**A.** > 2000 ng/mL

**Q.** And the level at 96 h ([1]; human, in vivo)?
**A.** ~4000 ng/mL

**Q.** And the level at 720 h ([1]; human, in vivo)?
**A.** < 2000 ng/mL

**Q.** And the “mean Colistin peak level” value ([1]; plasma, sampled 30 min after CMS injection, all patients pooled, mean (±SD), n = 383, HPLC-MS/MS, unit not given)?
**A.** 3.5 (±1.3, n = 383)

**Q.** And the “mean Colistin trough level” value ([1]; plasma, sampled immediately prior to CMS injection, all patients pooled, mean (±SD), n = 386, HPLC-MS/MS, unit not given)?
**A.** 3.45 (±1.3, n = 386)

**Q.** What about the “t1/2 of Colistin” value ([2]; Patient 1, eGFR 119 mL/min/1.73m^2, RRT none, R2 = 0.97) of the same compound?
**A.** 23.6 h

**Q.** What about the “t1/2 of Colistin” value ([2]; Patient 2, eGFR 27 mL/min/1.73m^2, RRT none, R2 = 0.99) of the same compound?
**A.** 23.43 h

**Q.** And the “t1/2 of Colistin” value ([2]; Patient 4, eGFR 58 mL/min/1.73m^2, RRT CVVHDF, R2 = 0.996)?
**A.** 19.5 h

**Q.** And the “t1/2 of Colistin” value ([2]; Patient 5, eGFR 59 mL/min/1.73m^2, RRT IHD, R2 = 0.98)?
**A.** 16.5 h

**Q.** What about the “t1/2 of Colistin” value ([2]; Patient 6, eGFR 99 mL/min/1.73m^2, RRT CVVHDF, R2 = 0.91) of the same compound?
**A.** 30.9 h

**Q.** And the “t1/2 of Colistin” value ([2]; Patient 8, eGFR 51 mL/min/1.73m^2, RRT IHD, R2 = 0.999)?
**A.** 17.9 h

**Q.** And the half-life ([2]; human, in vivo, mean of 6 out of 8 patients, plasma after end of CMS treatment, first-order kinetic, read-out: elimination half-time of Colistin, mean (converted))?
**A.** 22 h

**Q.** What about the result of treatment ([3]; Patient 1, CRAB wound infection, 3 × 3 million IU CMS, 7 days, colonization persisted) of the same compound?
**A.** eradication of the CRAB wound infection was achieved

**Q.** What about the result of treatment ([3]; Patient 2, CRAB bloodstream, wound and pulmonary infection, colonization and pulmonary infection remained) of the same compound?
**A.** cured the bloodstream infection

**Q.** What about the result of treatment ([3]; Patient 6, first treatment cycle, bloodstream and pulmonary CRAB infection) of the same compound?
**A.** bloodstream infection was cured but colonization persisted

**Q.** What about the “elimination by prolonged intermittent RRT” value [4] of the same compound?
**A.** up to 50%

**Q.** Which mean CMS trough level ([1]; in vivo) does the source give for Colistin methanosulfate [CMS] here?
**A.** 1.6 mg/L

**Q.** And the “mean CMS peak level” value ([1]; plasma, sampled 30 min after CMS injection, all patients pooled, mean (±SD), n = 381, HPLC-MS/MS, unit not given)?
**A.** 8.7 (±4.1, n = 381)

**Q.** And the result of treatment ([3]; Patient 3, CRAB bloodstream and wound infection, after dose increase to 3 × 4 million IU)?
**A.** eradication of both bloodstream and wound infection

**Q.** And the result of treatment ([3]; Patient 4, in combination with surgical focus eradication, MDR Pseudomonas infection and colonization persisted)?
**A.** the CRAB infection was eliminated

**Q.** What about the result of treatment ([3]; Patient 5, 3 × 4 million IU, colonization with CRAB persisted) of the same compound?
**A.** successfully eradicated CRAB from the bloodstream and from pulmonary samples

**Q.** And the result of treatment ([3]; Patient 6, second treatment cycle, recurrent CRAB bloodstream infection, blood stream samples)?
**A.** eradication of CRAB within 3 days of treatment

**Q.** And the result of treatment ([3]; Patient 7, first treatment cycle, 6 days of CMS)?
**A.** successful eradication of CRAB from wound samples

**Q.** And the result of treatment ([3]; Patient 7, second treatment cycle, 4.5 million IU twice daily, resistant colonization remained)?
**A.** the bloodstream infection was successfully eradicated

**Q.** And the “renal function (eGFR) under treatment” value [5]?
**A.** gradual decline of renal function

**Q.** What about the “portion of CMS undergoing renal excretion” value [4] of the same compound?
**A.** about two thirds

**Q.** What about the “elimination by prolonged intermittent RRT” value [4] of the same compound?
**A.** up to 50%
